As a reminder, the IC50 is the midpoint of a concentration-inhibition curve.

One assay concerns the target T1, CXCR2 (Homo sapiens, UniProt P25025).
T1 sequence (P25025 1-360): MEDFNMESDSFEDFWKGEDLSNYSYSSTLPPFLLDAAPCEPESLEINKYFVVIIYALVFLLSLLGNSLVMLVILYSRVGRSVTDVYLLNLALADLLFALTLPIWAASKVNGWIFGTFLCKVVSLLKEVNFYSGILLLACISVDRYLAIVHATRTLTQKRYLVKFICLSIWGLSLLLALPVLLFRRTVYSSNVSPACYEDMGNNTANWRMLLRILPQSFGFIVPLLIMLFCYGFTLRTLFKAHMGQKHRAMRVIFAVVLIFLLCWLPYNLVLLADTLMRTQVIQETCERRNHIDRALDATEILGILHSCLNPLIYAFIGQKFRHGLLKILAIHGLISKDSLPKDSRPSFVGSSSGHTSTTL
Description: Human Neutrophil Chemotaxis Assay. It is filed as cell-based. Also on record: Human neutrophils were purified from freshly drawn human whole blood; endogenous in cells; host or cells: primary human neutrophils from fresh whole blood. Particulars: Table 12; human neutrophils migrating towards the CXCR2 ligand GROα; read-out: IC50. As for the experimental part: After 30 min, the labeled neutrophils were washed twice in chemotaxis buffer, resuspended as before and used immediately. For the assay, test compounds were tested in a dose-response format to determine IC50. Labeled neutrophils (50 μL) were pre-incubated with diluted test compound (50 μL) for 30 min in a 96-well plate (Greiner). Next, 100 μL of diluted compound was mixed with 100 μL of GROα (Peprotech #300-11, 2 nM) in the bottom portion of the chemotaxis chamber. The top portion (insert) of the chemotaxis system containing the FluoroBlok porous membrane was then assembled together. 50 μL of the pre-incubated neutrophils were added to the FluoroBlok insert (top portion) and chemotaxis measured by the neutrophils ability to migrate through the membrane towards the specific CXCR2 ligand, GROα.
IC50 values for compounds of the present invention (Table 12) were determined by the non-linear regression analysis of dose response curves.

A further assay addresses T2, CCR6 (Homo sapiens, UniProt P51684).
T2 construct: Human CD4+CCR6+CXCR3-T cells were isolated from leukopak from healthy donors; endogenous in cells
T2 sequence (P51684 1-374): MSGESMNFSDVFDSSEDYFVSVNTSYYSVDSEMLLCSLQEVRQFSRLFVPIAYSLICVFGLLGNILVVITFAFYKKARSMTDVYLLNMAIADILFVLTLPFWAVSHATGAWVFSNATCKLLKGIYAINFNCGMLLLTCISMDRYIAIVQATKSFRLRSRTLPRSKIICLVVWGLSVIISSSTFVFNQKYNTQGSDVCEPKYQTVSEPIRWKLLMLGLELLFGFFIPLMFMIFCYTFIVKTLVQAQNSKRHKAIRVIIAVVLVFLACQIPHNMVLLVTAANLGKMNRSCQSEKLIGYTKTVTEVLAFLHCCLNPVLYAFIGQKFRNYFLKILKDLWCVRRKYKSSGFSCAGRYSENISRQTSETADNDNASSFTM
As to the kind of experiment: CCR6+ T Cell Chemotaxis Assay. It is filed as cell-based. Particulars: for IC50: Table 11, human CD4+CCR6+CXCR3- T cells, CCL20 0.5 nM in bottom chamber, 1 h at 37° C., read-out: IC50; for T Cell Chemotaxis Selectivity: Table 13, T cell chemotaxis compared to neutrophil chemotaxis, NS = not selective for T cell chemotaxis compared to neutrophil chemotaxis. An excerpt: Human CD4+CCR6+CXCR3-T cells were isolated from leukopak from healthy donors using EasySep™ Human Th17 Cell Enrichment Kit. […] Day 4 post activation, Dynabeads were removed from the culture. The activated T cells were maintained at 1-2×10^6 cells/mL for 15 days by feeding fresh growth media when needed.
For IC50 determination, the top and bottom of the chemotaxis chamber contained the same concentration of compound. DMSO was kept constant at 0.1% (v/v) in all wells. The final concentration of CCL20 (Peprotech 300-29A) in the bottom chamber is 0.5 nM. The fully assembled chemotaxis plate was placed in a cell culture incubator at 37° C., 5% CO2 for 1 h. After incubation, the top filter was removed, followed by a quick freeze of the bottom chamber at −80° C. for 1 h. The migrated cells in the bottom chamber were stained with CyQUANT dye (Life Technologies, C7026) for cell number determination.
IC50 values for compounds of the present invention (Table 11) were determined by the non-linear regression analysis of dose response curves.

`COc1cn(C)nc1[C@H](Nc1c(Nc2ccnc(C(=O)N(C)C)c2O)c(=O)c1=O)C1(C)CCCC1` [Example 12, (R)-3-Hydroxy-4-((2-(((4-methoxy-1-methyl-1H-pyrazol-3-yl)(1-methylcyclopentyl)methyl)amino)-3,4-dioxocyclobut-1-en-1-yl)amino)-N,N-dimethylpicolinamide]: the IC50 on CXCR2 turned out to be 107 nM; on CCR6 it was 1.7 nM. Also, the “T Cell Chemotaxis Selectivity” value on CCR6 is on record as 63.

As for `COc1cn(C)nc1[C@H](Nc1c(Nc2ccnc(C(=O)N(C)C)c2O)c(=O)c1=O)C(C)(C)C` [Example 13, (R)-3-Hydroxy-4-((2-((1-(4-methoxy-1-methyl-1H-pyrazol-3-yl)-2,2-dimethylpropyl)amino)-3,4-dioxocyclobut-1-en-1-yl)amino)-N,N-dimethylpicolinamide], the IC50 at CXCR2 was 328 nM. On CCR6, the IC50 is 5.4 nM and the “T Cell Chemotaxis Selectivity” value is listed as 60.

Regarding `COc1cn(C)nc1[C@H](Nc1c(Nc2ccnc(C(=O)N(C)C(C)C)c2O)c(=O)c1=O)C(C)(C)C` [Example 14, (R)-3-Hydroxy-N-isopropyl-4-((2-((1-(4-methoxy-1-methyl-1H-pyrazol-3-yl)-2,2-dimethylpropyl)amino)-3,4-dioxocyclobut-1-en-1-yl)amino)-N-methylpicolinamide], the IC50 at CXCR2 was determined as 272 nM. Further, at CCR6, the IC50 was determined as 12.5 nM and the “T Cell Chemotaxis Selectivity” value is reported as 22.

For `CN(C)C(=O)c1nccc(Nc2c(N[C@@H](c3nn(C)cc3OC(F)F)C3(C)CCCC3)c(=O)c2=O)c1O` [Example 15, (R)-4-((2-(((4-(Difluoromethoxy)-1-methyl-1H-pyrazol-3-yl)(1-methylcyclopentyl)methyl)amino)-3,4-dioxocyclobut-1-en-1-yl)amino)-3-hydroxy-N,N-dimethylpicolinamide], the IC50 on CXCR2 stood at 735 nM; at CCR6 it was 10.6 nM. The “T Cell Chemotaxis Selectivity” value on CCR6 came to 69.

As to `CN(C)C(=O)c1nccc(Nc2c(N[C@@H](c3nn(C)cc3C#N)C3(C)CCCC3)c(=O)c2=O)c1O` [Example 16, (R)-4-((2-(((4-Cyano-1-methyl-1H-pyrazol-3-yl)(1-methylcyclopentyl)methyl)amino)-3,4-dioxocyclobut-1-en-1-yl)amino)-3-hydroxy-N,N-dimethylpicolinamide], the IC50 on CXCR2 was 4350 nM. Further, at CCR6, the IC50 stood at 41.7 nM and the “T Cell Chemotaxis Selectivity” value was 104.

With `CCc1cn(C)nc1[C@H](Nc1c(Nc2ccnc(C(=O)N(C)C)c2O)c(=O)c1=O)C1(C)CCCC1` [Example 18, (R)-4-((2-(((4-Ethyl-1-methyl-1H-pyrazol-3-yl)(1-methylcyclopentyl)methyl)amino)-3,4-dioxocyclobut-1-en-1-yl)amino)-3-hydroxy-N,N-dimethylpicolinamide], the IC50 on CXCR2 was found to be 1010 nM. In addition, at CCR6, the IC50 turned out to be 3.3 nM and the “T Cell Chemotaxis Selectivity” value is reported as 306.

For `Cc1nc([C@H](Nc2c(Nc3ccnc(C(=O)N(C)C)c3O)c(=O)c2=O)C2(C)CC2)c(C)s1` [Example 19, (R)-4-((2-(((2,5-Dimethylthiazol-4-yl)(1-methylcyclopropyl)-methyl)amino)-3,4-dioxocyclobut-1-en-1-yl)amino)-3-hydroxy-N,N-dimethylpicolinamide], on CXCR2, the IC50 was 197 nM. In addition, on CCR6, the IC50 stood at 70.6 nM and the “T Cell Chemotaxis Selectivity” value came to 3.

Consider `Cc1cn(C)nc1[C@H](Nc1c(Nc2ccnc(C(=O)N(C)C)c2O)c(=O)c1=O)C1(C)CC1` [Example 20, (R)-4-((2-(((1,4-Dimethyl-1H-pyrazol-3-yl)(1-methylcyclopropyl)methyl)amino)-3,4-dioxocyclobut-1-en-1-yl)amino)-3-hydroxy-N,N-dimethylpicolinamide], for which the IC50 came out at 167 nM at CXCR2 and 271 nM on CCR6.

Turning to `CCc1cn(C)nc1[C@H](Nc1c(Nc2ccnc(C(=O)N(C)C)c2O)c(=O)c1=O)C1(C)CC1` [Example 21, (R)-4-((2-(((4-Ethyl-1-methyl-1H-pyrazol-3-yl)(1-methylcyclopropyl)methyl)amino)-3,4-dioxocyclobut-1-en-1-yl)amino)-3-hydroxy-N,N-dimethylpicolinamide], the IC50 turned out to be 293 nM at CXCR2 and 102 nM on CCR6. Besides, on CCR6, the “T Cell Chemotaxis Selectivity” value is recorded as 3.

With `Cc1cn(C)nc1[C@H](Nc1c(Nc2ccnc(C(=O)N(C)C)c2O)c(=O)c1=O)C(C)(C)C` [Example 22, (R)-4-((2-((1-(1,4-Dimethyl-1H-pyrazol-3-yl)-2,2-dimethylpropyl)amino)-3,4-dioxocyclobut-1-en-1-yl)amino)-3-hydroxy-N,N-dimethylpicolinamide], the IC50 stood at 141 nM on CXCR2 and 7.4 nM at CCR6. The “T Cell Chemotaxis Selectivity” value at CCR6 is 19.

As for `Cc1cn(C)nc1[C@H](Nc1c(Nc2ccnc(C(=O)N(C)C)c2O)c(=O)c1=O)C1(C)CCC1` [Example 23, (R)-4-((2-(((1,4-Dimethyl-1H-pyrazol-3-yl)(1-methylcyclobutyl)methyl)amino)-3,4-dioxocyclobut-1-en-1-yl)amino)-3-hydroxy-N,N-dimethylpicolinamide], the IC50 at CXCR2 is 248 nM. In addition, at CCR6, the IC50 stood at 16.5 nM and the “T Cell Chemotaxis Selectivity” value came to 15.

As for `Cc1nc([C@H](Nc2c(Nc3ccnc(C(=O)N(C)C)c3O)c(=O)c2=O)C2(C)CCC2)c(C)s1` [Example 24, (R)-4-((2-(((2,5-Dimethylthiazol-4-yl)(1-methylcyclobutyl)-methyl)amino)-3,4-dioxocyclobut-1-en-1-yl)amino)-3-hydroxy-N,N-dimethylpicolinamide], at CXCR2, the IC50 amounted to 1010 nM. Also, at CCR6, the concentration for half-maximal inhibition (IC50) worked out at 3.1 nM and the “T Cell Chemotaxis Selectivity” value is listed as 325.

In the case of `Cc1nc([C@H](Nc2c(Nc3ccnc(C(=O)N(C)C)c3O)c(=O)c2=O)C(C)(C)C)c(C)s1` [Example 25, (R)-4-((2-((1-(2,5-Dimethylthiazol-4-yl)-2,2-dimethylpropyl)-amino)-3,4-dioxocyclobut-1-en-1-yl)amino)-3-hydroxy-N,N-dimethylpicolinamide], the IC50 on CXCR2 came out at 355 nM. Moreover, on CCR6, the IC50 came to 1.2 nM and the “T Cell Chemotaxis Selectivity” value amounted to 296.

`CCc1cn(C)nc1[C@H](Nc1c(Nc2ccnc(C(=O)N(C)C)c2O)c(=O)c1=O)C1(C)CCC1` [Example 26, (R)-4-((2-(((4-Ethyl-1-methyl-1H-pyrazol-3-yl)(1-methylcyclobutyl)methyl)amino)-3,4-dioxocyclobut-1-en-1-yl)amino)-3-hydroxy-N,N-dimethylpicolinamide]: the IC50 at CXCR2 came to 142 nM. Also, at CCR6, the IC50 amounted to 3.3 nM and the “T Cell Chemotaxis Selectivity” value is listed as 43.

In the case of `CCc1cn(C)nc1[C@H](Nc1c(Nc2ccnc(C(=O)N(C)C)c2O)c(=O)c1=O)C(C)(C)C` [Example 27, (R)-4-((2-((1-(4-Ethyl-1-methyl-1H-pyrazol-3-yl)-2,2-dimethylpropyl)amino)-3,4-dioxocyclobut-1-en-1-yl)amino)-3-hydroxy-N,N-dimethylpicolinamide], on CXCR2, the IC50 worked out at 52.6 nM. Also, on CCR6, the IC50 was found to be 13.2 nM and the “T Cell Chemotaxis Selectivity” value was 4.
